Key:
Test in all cases: relative viability (nuclei count vs DMSO), 5 days (fraction); higher = more cells survive
AZ628 + Navitoclax = compound: CC1=C(C=C(C=C1)NC(=O)C2=CC(=CC=C2)C(C)(C)C#N)NC3=CC4=C(C=C3)N=CN(C4=O)C [AZ628] + CC1(C)CCC(c2ccc(Cl)cc2)=C(CN2CCN(c3ccc(C(=O)NS(=O)(=O)c4ccc(N[C@H](CCN5CCOCC5)CSc5ccccc5)c(S(=O)(=O)C(F)(F)F)c4)cc3)CC2)C1 [Navitoclax] (partner 0.5 µM)
In short: (§1)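 Relative viability is defined as nuclei in treated wells over nuclei in vehicle wells. Duplicate plates were run and medians reported. Lung cancer cell lines in 1536-well plates were dosed by pin tool one day after seeding, with one drug or with a fixed anchor-drug dose plus five library-drug doses (not always all listed) in √10 steps, and nuclei were counted after 5 days.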

[1] = compound: C[As](C)SC[C@H](NC(=O)CC[C@H](N)C(=O)O)C(=O)NCC(=O)O [Darinaparsin] + CCNC(=O)c1noc(-c2cc(C(C)C)c(O)cc2O)c1-c1ccc(CN2CCOCC2)cc1 [Luminespib] (partner 0.01 µM)
In short: as §1

[2] = compound: C[As](C)SC[C@H](NC(=O)CC[C@H](N)C(=O)O)C(=O)NCC(=O)O [Darinaparsin] + CC(=O)c1c(C)c2cnc(Nc3ccc(N4CCNCC4)cn3)nc2n(C2CCCC2)c1=O [Palbociclib] (partner 0.5 µM)
In short: as §1

Darinaparsin + Lapatinib = compound: C[As](C)SC[C@H](NC(=O)CC[C@H](N)C(=O)O)C(=O)NCC(=O)O [Darinaparsin] + CS(=O)(=O)CCNCc1ccc(-c2ccc3ncnc(Nc4ccc(OCc5cccc(F)c5)c(Cl)c4)c3c2)o1 [Lapatinib] (partner 2 µM)
In short: as §1

Cell Line	relative viability (AZ628 + Navitoclax; first compound 0.08 µM)	relative viability (AZ628 + Navitoclax; first compound 0.253 µM)	relative viability (AZ628 + Navitoclax; first compound 0.8 µM)	relative viability (AZ628 + Navitoclax; first compound 2.53 µM)	relative viability (AZ628 + Navitoclax; first compound 8 µM)	relative viability ([1]; first compound 0.08 µM)	relative viability ([1]; first compound 0.8 µM)	relative viability ([1]; first compound 2.53 µM)	relative viability ([1]; first compound 8 µM)	relative viability ([2]; first compound 0.08 µM)	relative viability ([2]; first compound 0.8 µM)	relative viability ([2]; first compound 2.53 µM)	relative viability ([2]; first compound 8 µM)	relative viability (Darinaparsin + Lapatinib; first compound 0.08 µM)	relative viability (Darinaparsin + Lapatinib; first compound 0.8 µM)	relative viability (Darinaparsin + Lapatinib; first compound 2.53 µM)	relative viability (Darinaparsin + Lapatinib; first compound 8 µM)
H3255	0.496	0.503	0.558	0.489	0.227	0.88	0.94	0.807	0.95	0.303	0.313	0.329	0.294	0.253	0.28	0.25	0.216
LOU-NH91	0.681	0.713	0.713	0.654	0.4	0.407	0.31	0.306	0.345	0.576	0.512	0.562	0.641	0.848	0.647	0.705	0.795
NCI-H2126	0.894	0.886	0.866	0.794	0.624	0.984	1.02	0.722	0.931	0.371	0.344	0.352	0.334	0.767	0.712	0.622	0.861
PC-14	1.03	0.997	1.1	1.17	0.977	0.19	0.185	0.157	0.0932	0.661	0.53	0.365	0.462	0.333	0.294	0.32	0.372
EMC-BAC-2	1.26	1.09	1.07	1.06	1.05	0.763	1.15	1.16	1.49	0.516	0.491	0.515	0.54	0.858	0.924	0.949	1.05
HCC-78	0.902	0.782	0.85	0.746	0.92	–	–	–	–	0.46	0.509	0.475	0.503	0.76	0.58	0.704	0.885
SK-LU-1	0.502	0.878	1.06	0.886	0.902	0.203	0.182	0.214	0.169	0.381	0.338	0.339	0.347	1.08	0.802	0.574	0.932
ABC-1	–	–	–	–	–	0.358	0.608	1.04	0.676	0.879	0.6	0.744	0.729	1.11	1.18	1.16	1.47
LK-2	1.07	0.887	0.847	0.818	0.634	0.175	–	0.173	0.174	1	–	0.815	0.989	0.978	0.622	0.926	1.05
NCI-H23	0.878	0.868	0.61	0.783	0.559	0.212	–	0.217	0.193	0.549	0.52	0.51	0.479	1.54	0.999	1.22	1.38
NCI-H2228	0.829	1.13	1.03	1.01	0.839	0.162	0.206	0.135	0.102	0.805	0.881	0.419	0.998	1.46	0.869	0.685	1.22
NCI-H441	0.565	0.508	0.765	0.902	0.633	0.488	0.321	0.364	0.245	0.264	0.214	0.21	0.188	–	–	–	–
NCI-H460	1.2	1.18	1.09	1.09	0.561	0.0325	0.033	0.0441	0.0347	0.147	0.176	0.117	0.181	1.03	1.3	0.731	–
LU99A	0.856	0.859	0.865	0.895	0.296	0.228	0.24	0.241	0.222	0.425	0.438	0.354	0.451	1.03	0.942	0.923	1.22
NCI-H358	–	–	–	–	–	0.416	0.332	–	0.344	0.141	0.128	0.127	0.139	0.463	0.412	0.422	0.52
IA-LM	1.15	0.716	0.641	0.761	0.0904	–	–	–	–	–	–	–	–	1.25	0.658	1.32	1.07
UMC-11	0.311	0.378	0.334	0.313	0.418	1.16	0.994	1.08	1.22	0.309	0.342	0.295	0.345	1.22	0.977	0.928	1.05
LXF-289	0.941	0.875	0.87	0.942	0.568	0.773	0.499	0.578	1.06	0.638	0.611	0.488	0.562	0.968	0.874	0.765	1.08
NCI-H647	1.29	1.1	1.21	1.19	1.02	0.176	0.154	0.0855	0.215	0.467	0.406	0.357	0.561	1.28	0.926	0.833	1.42
NCI-H1651	1.07	1.02	1.2	1.25	1.1	0.886	0.831	0.926	1.16	0.515	0.531	0.527	0.522	1.01	0.881	0.759	1.09

Source: the supplement of paper PMC10307832
